“And” between values parts separate entries of the source, which are not always exact repeats. Equal values may be shown once. Read-outs that look alike come from different tables or passages of the source.
What was measured:
[1] = design: method as in earlier work; conditions: ref 2 and unpublished data, cited from earlier work
[2] = Pharmacokinetics of total radioactivity in whole blood and plasma after a single oral 2 mg dose of [14C]pomalidomide; format: in vivo, human
Method: (§1) Each subject was administered a single oral suspension of 2 mg (100 μCi) of [^14C]pomalidomide in seltzer water (75 mL) followed by administration of an additional 140 mL of distilled water. Subjects were fasted for 8 h prior to and 4 h following dose administration. The residual radioactivity in the dosing vials was determined, and for six of the eight subjects (subjects 1–4, 6 and 8), the administered dose (1.93–2.02 mg) was close to the target dose of 2 mg. For subjects 5 and 7, a significant amount of radioactivity remained in the dose vial, resulting in administered doses of 1.59 and 1.51 mg, respectively. Calculations for percent of dose recovered in excreta were based on the actual administered doses.
(§2) Blood was collected into pre-chilled K3EDTA tubes at pre-dose, 0.5, 1, 1.5, 2, 2.5, 3, 4, 6, 8, 10, 12, 24, 48, 72, 120 and 168 h following dose administration. Blood for radioactivity counting was transferred to a clean tube and stored at or below 4 °C until analyzed. Plasma was harvested by centrifugation from the remaining blood. A plasma sample for radioactivity counting was transferred to a fresh tube. Three plasma aliquots were transferred to tubes containing citric acid for metabolite profiling and for determination of pomalidomide enantiomer concentrations in plasma. Urine was collected pre-dose, 0–6, 6-12, 12–24 and every 24 h thereafter up to 216 h (9 days) following dose administration and were stabilized with one volume of pH 1.5 Sorensen’s citrate buffer (25 mM sodium citrate buffer adjusted to pH 1.5). During the 12- to 24-h collection interval for subject 4, approximately 550 mL of urine was inadvertently poured into the wrong collection urinal and the sample was lost. […] Individual fecal samples were collected pre-dose and for up to 9 days following dose administration, and homogenized using approximately three volumes by weight of pH 1.5 Sorensen’s citrate buffer. All urine, fecal homogenates and plasma samples were stored at or below −20 °C until analyzed.
(§3) All radioactivity determinations were performed using Tri-Carb model 2900TR liquid scintillation counter (PerkinElmer, Wellesley, MA). For plasma, urine and residual dose vial analysis, duplicate samples were mixed with Ultima Gold XR scintillation cocktail and directly analyzed by liquid scintillation counting. For fecal homogenate and blood samples, duplicate aliquots were weighed, allowed to dry and combusted using a PerkinElmer model 307 sample oxidizer. The resultant [^14C]CO2 was trapped in Carbosorb (PerkinElmer) in combination with Permafluor and assayed by liquid scintillation counting. For all matrices, any sample that was less than two times the background dpm was assigned a value of zero. Using these criteria, the lower limits of quantification in plasma, blood, urine and feces were 0.894 ng [^14C]pomalidomide equivalent/mL (ngEq/mL), 0.939 ngEq/g, 0.871 ngEq/mL and 2.96 ngEq/g, respectively.
Standard pharmacokinetic parameters were estimated from the pomalidomide (as the sum of the enantiomer concentrations at each time point) and enantiomer concentration versus time profiles or the blood and plasma radioactive concentration equivalents versus time profiles using established non-compartmental methods with WinNonlin (Version 5.2, Pharsight Corp., CA). Pre-dose samples that were below the limit of quantification (BLQ) or missing were assigned a numerical value of zero for the calculation of AUC. All post-dose BLQ were treated as missing in the PK analysis.
Total radioactivity in whole blood and plasma was converted to nanogram equivalent (ngEq) concentrations (ngEq/g for whole blood or ngEq/mL for plasma) based on the actual specific activity of the dose.

[3] = Plasma pharmacokinetics of pomalidomide and its enantiomers (chiral LC–MS/MS) after a single oral 2 mg dose of [14C]pomalidomide; format: in vivo, human
Text: This was an open-label, in-patient, single-dose study in eight non-smoking healthy male adult volunteers conducted in accordance with Good Clinical Practices (GCP) and in compliance with the Declaration of Helsinki. The protocol and consent form were reviewed and approved by the appropriate institutional review board, and all study participants gave written informed consent, before initiation of any study-related procedure. Male subjects were eligible based on standard inclusion/exclusion criteria and were excluded if they had exposure to excess radiation or participated in a study involving radioisotopes within the previous 12 months. Subjects entered the study center on the day prior to dosing and remained at the center for up to 15 days following dosing or until the total radioactivity recovered in excreta was ≥90 % or the radioactivity recovered in excreta per day on three consecutive days was ≤1 % of the administered radioactive dose.
as §1, §2
Plasma concentrations of each pomalidomide enantiomer were determined using a chiral LC–MS/MS assay. The pomalidomide enantiomers and ^13C-labeled pomalidomide (internal standard; IS) were extracted from plasma (stabilized with citric acid) using liquid–liquid extraction with methyl tertiary butyl ether. After transfer to a new tube, the solvent was evaporated, and the samples were reconstituted and injected for LC–MS/MS analysis using a Chiral AGP (50 × 3.0 mm, 5 μm; Chrom Tech, Inc., Apple Valley, MN) analytical column. Positive ions were measured in the multiple reaction monitoring (MRM) mode using a Sciex API-4000 tandem mass spectrometer equipped with a Turbo Ion Spray source. For the QC samples, the accuracy ranged from 91.0 to 106.9 %. For study samples, the amount of [^14C]-labeled material was accounted for when calculating the concentration of enantiomers in plasma using an appropriate correction factor. […]

[4] = Excretion of radioactivity in urine and feces (mass balance); format: in vivo, human
Method: as §1, §2, §3
The amount of total radioactivity (ngEq) in urine and feces was determined by multiplying the volume or weight of the samples by the radioactivity concentration. The dose recovered at each time point was determined by total radioactivity in the sample, divided by the total dose administered, multiplied by 100 %. For data BLQ values, a value of zero was assigned for calculations of means.

[5] = plasma, as [14C]pomalidomide equivalents, mean ± SD
[6] = whole blood, as [14C]pomalidomide equivalents, mean ± SD
[7] = percentage of dose, over 216 h, listed as [^14C]pomalidomide

Nc1cccc2c1C(=O)N(C1CCC(=O)NC1=O)C2=O (racemic) [Pomalidomide, (RS)-4-amino-2-(2,6-dioxo-piperidin-3-yl)-isoindoline-1,3-dione]
mean C max and AUC accumulation ratios ([1]; once-daily administrations, MM patients): < 2 | half-life ([1]; relapsed or refractory MM patients): 6.5 to 8.0 h | AUC0−t, plasma total radioactivity [2, 5]: 189 ± 88 ng·h/mL | AUC0−∞, plasma total radioactivity [2, 5]: 225 ± 94 ng·h/mL | AUC0–24, TRA (total radioactivity) ([2]; plasma, geometric mean (%CV)): 194 (27.6) ngEq*h/mL | AUC0−∞, TRA (total radioactivity) ([2]; plasma, geometric mean (%CV)): 245 (37.9) ngEq*h/mL | C max, TRA (total radioactivity) ([2]; plasma, geometric mean (%CV)): 14.8 (17.8) ngEq/mL | t ½, TRA (total radioactivity) ([2]; plasma, geometric mean (%CV)): 10.3 (23.5) h | t ½, plasma total radioactivity ([2]; plasma, mean ± SD, listed as [^14C]pomalidomide): 11.2 ± 2.5 h | T max, plasma total radioactivity ([2]; plasma, median (min–max), listed as [^14C]pomalidomide): 3.25 (1.0–4.0) h | T max, TRA (total radioactivity) ([2]; plasma, median and range): 2.5 (1.0–4.0) h | C max, plasma total radioactivity ([2]; plasma, single oral 2 mg, mean ± SD): 12.1 ± 2.2 ng [^14C]pomalidomide equivalent/mL | Radioactivity blood to plasma ratio, AUC0−t ([2]; single oral 2 mg): 0.84 | Radioactivity blood to plasma ratio, AUC0−∞ ([2]; single oral 2 mg): 0.87 | Radioactivity blood to plasma ratio, C max ([2]; single oral 2 mg): 0.80 | AUC0−t, whole blood total radioactivity [2, 6]: 225 ± 99 ng·h/mL | AUC0−∞, whole blood total radioactivity [2, 6]: 260 ± 102 ng·h/mL | t ½, whole blood total radioactivity ([2]; whole blood, mean ± SD): 10.2 ± 1.9 h | T max, whole blood total radioactivity ([2]; whole blood, median (min–max)): 2.5 (1.0–4.0) h | C max, whole blood total radioactivity ([2]; whole blood, single oral 2 mg, mean ± SD): 15.1 ± 2.7 ng [^14C]pomalidomide equivalent/mL | Cmax ([3]; human, healthy male subjects, mean ± SD (n = 8)): 13 ± 3.9 ng/mL | AUC(0-inf) ([3]; male, human, mean ± SD (n = 8)): 189 ± 52 ng·h/mL | AUC(0-t) ([3]; male, human, mean ± SD (n = 8)): 137 ± 67 ng·h/mL | half-life ([3]; male, human, po, 2 mg, mean ± SD (n = 8), read-out: t ½ (converted)): 11.2 h | Tmax ([3]; male, human, po, 2 mg, median (min–max)): < 3.5 h | t ½ ([3]; mean ± SD (n = 8)): 8.9 ± 3.4 h | T max ([3]; median (min–max)): 3.0 (2.0–6.0) h | mean total recovery of radioactivity (urine + feces) ([4]; % of radioactive dose, collection over 216 h (9 days), eight subjects, listed as [^14C]pomalidomide): 88% and 88.3% | oral absorption ([4]; inferred from urinary radioactivity and unchanged drug in feces): > 70% | radioactivity excreted in feces, mean [4, 7]: 15% and 15.5 ± 2.5% | radioactivity excreted in urine, mean [4, 7]: 73% and 72.8 ± 16.7% | radioactivity recovered within the first 48 h after dose administration ([4]; urine + feces): > 80%

Reference: article PMC3556473, “Absorption, metabolism and excretion of [^14C]pomalidomide in humans following oral administration” (Cancer Chemotherapy and Pharmacology, 2012)
